Source: the NIST ThermoML archive (doi:10.1016/j.jct.2014.01.012)

How the values were obtained:
[1] = 101.33 kPa, Liquid
[2] = refractive index (Na D-line) (dimensionless); details: 101.33 kPa, Liquid
[3] = xn = mol fraction of the nth substance listed; details: 101 kPa, Liquid, x2 = 0
[4] = refractive index (Na D-line) (dimensionless); xn = mol fraction of the nth substance listed; details: 101 kPa, Liquid, x2 = 0

CCCCCCn1cc[n+](C)c1.F[P-](F)(F)(F)(F)F [1-hexyl-3-methylimidazolium hexafluorophosphate]
Details | mass density, Vibrating tube method [kg/m3] | refractive index, Standard Abbe refractometry | speed of sound, Sing-around technique in a fixed-path interferometer [m/s]
[1], 293.15 K | 1291.38 | – | 1436.9
[1], 298.15 K | 1287.34 | – | 1423.5
[1], 303.15 K | 1283.29 | – | 1410.6
[1], 308.15 K | 1279.4 | – | 1398.2
[1], 313.15 K | 1275.48 | – | 1386
[1], 318.15 K | 1271.56 | – | 1374.2
[1], 323.15 K | 1267.63 | – | 1362.5
[2], 293.15 K | – | 1.42064 | –
[2], 298.15 K | – | 1.41935 | –
[2], 303.15 K | – | 1.41806 | –
[2], 308.15 K | – | 1.41676 | –
[2], 313.15 K | – | 1.41547 | –
[2], 318.15 K | – | 1.41417 | –
[2], 323.15 K | – | 1.41288 | –

CCCCCCCC[n+]1ccn(C)c1.F[P-](F)(F)(F)(F)F [1-octyl-3-methylimidazolium hexafluorophosphate]
Details | mass density, [1] [kg/m3] | refractive index, [2] | speed of sound, [1] [m/s]
293.15 K | 1222.81 | 1.42649 | 1388.2
298.15 K | 1218.9 | 1.42512 | 1373.4
303.15 K | 1214.96 | 1.42376 | 1359.3
308.15 K | 1211.13 | 1.4224 | 1345.8
313.15 K | 1207.33 | 1.42103 | 1332.7
318.15 K | 1203.5 | 1.41967 | 1320.1
323.15 K | 1199.67 | 1.41831 | 1307.7

CCCCOC(C)=O [butyl ethanoate]
Details | mass density, Vibrating tube method [kg/m3] | refractive index, Standard Abbe refractometry | speed of sound, Sing-around technique in a fixed-path interferometer [m/s]
[1], 293.15 K | 881.134 | – | 1211.3
[1], 298.15 K | 876.004 | – | 1190.5
[1], 303.15 K | 870.855 | – | 1169.8
[1], 308.15 K | 865.685 | – | 1149.2
[1], 313.15 K | 860.492 | – | 1128.8
[1], 318.15 K | 855.275 | – | 1108.5
[1], 323.15 K | 850.032 | – | 1088.3
[2], 293.15 K | – | 1.39428 | –
[2], 298.15 K | – | 1.39188 | –
[2], 303.15 K | – | 1.38948 | –
[2], 308.15 K | – | 1.3871 | –
[2], 313.15 K | – | 1.38469 | –
[2], 318.15 K | – | 1.38227 | –
[2], 323.15 K | – | 1.37984 | –

CCCCOC(C)=O [butyl ethanoate] + CCCCCCCC[n+]1ccn(C)c1.F[P-](F)(F)(F)(F)F
Details | mass density, [3] [kg/m3] | refractive index, [4] | speed of sound, [3] [m/s]
293.15 K | 881.134 | 1.39428 | 1211.3
298.15 K | 876.004 | 1.39188 | 1190.5
303.15 K | 870.855 | 1.38948 | 1169.8
308.15 K | 865.685 | 1.3871 | 1149.2
313.15 K | 860.492 | 1.38469 | 1128.8
318.15 K | 855.275 | 1.38227 | 1108.5
323.15 K | 850.032 | 1.37984 | 1088.3

CCCCOC(C)=O [butyl ethanoate] + CCCCCCn1cc[n+](C)c1.F[P-](F)(F)(F)(F)F
Details | mass density, Vibrating tube method [kg/m3] | refractive index, Standard Abbe refractometry | speed of sound, Sing-around technique in a fixed-path interferometer [m/s]
[3], 293.15 K | 881.134 | – | 1211.3
[3], 298.15 K | 876.004 | – | 1190.5
[3], 303.15 K | 870.855 | – | 1169.8
[3], 308.15 K | 865.685 | – | 1149.2
[3], 313.15 K | 860.492 | – | 1128.8
[3], 318.15 K | 855.275 | – | 1108.5
[3], 323.15 K | 850.032 | – | 1088.3
[4], 293.15 K | – | 1.39428 | –
[4], 298.15 K | – | 1.39188 | –
[4], 303.15 K | – | 1.38948 | –
[4], 308.15 K | – | 1.3871 | –
[4], 313.15 K | – | 1.38469 | –
[4], 318.15 K | – | 1.38227 | –
[4], 323.15 K | – | 1.37984 | –

CCOC(C)=O [ethyl acetate]
Details | mass density, Vibrating tube method [kg/m3] | refractive index, Standard Abbe refractometry | speed of sound, Sing-around technique in a fixed-path interferometer [m/s]
[1], 293.15 K | 900.573 | – | 1162.4
[1], 298.15 K | 894.473 | – | 1139.8
[1], 303.15 K | 888.347 | – | 1117.2
[1], 308.15 K | 882.172 | – | 1094.7
[1], 313.15 K | 875.951 | – | 1072.4
[1], 318.15 K | 869.681 | – | 1050.1
[1], 323.15 K | 863.358 | – | 1028
[2], 293.15 K | – | 1.37237 | –
[2], 298.15 K | – | 1.36982 | –
[2], 303.15 K | – | 1.36727 | –
[2], 308.15 K | – | 1.36473 | –
[2], 313.15 K | – | 1.36219 | –
[2], 318.15 K | – | 1.35968 | –
[2], 323.15 K | – | 1.35732 | –

CCOC(C)=O [ethyl acetate] + CCCCCCCC[n+]1ccn(C)c1.F[P-](F)(F)(F)(F)F
Details | mass density, [3] [kg/m3] | refractive index, [4] | speed of sound, [3] [m/s]
293.15 K | 900.573 | 1.37237 | 1162.4
298.15 K | 894.473 | 1.36982 | 1139.8
303.15 K | 888.347 | 1.36727 | 1117.2
308.15 K | 882.172 | 1.36473 | 1094.7
313.15 K | 875.951 | 1.36219 | 1072.4
318.15 K | 869.681 | 1.35968 | 1050.1
323.15 K | 863.358 | 1.35732 | 1028

CCOC(C)=O [ethyl acetate] + CCCCCCn1cc[n+](C)c1.F[P-](F)(F)(F)(F)F
[3]
Details | mass density, Vibrating tube method [kg/m3] | speed of sound, Sing-around technique in a fixed-path interferometer [m/s]
293.15 K | 900.573 | 1162.4
298.15 K | 894.473 | 1139.8
303.15 K | 888.347 | 1117.2
308.15 K | 882.172 | 1094.7
313.15 K | 875.951 | 1072.4
318.15 K | 869.681 | 1050.1
323.15 K | 863.358 | 1028

[4]
Details | refractive index
293.15 K | 1.37237
298.15 K | 1.36982
303.15 K | 1.36727
308.15 K | 1.36473
313.15 K | 1.36219
318.15 K | 1.35968
323.15 K | 1.35732
